Like-named read-outs stand apart in the source and are kept apart here.

The assay concerns the target T1, Human full-length diacylglycerol:acylCoA acyltransferase 1 (DGAT-1) (Homo sapiens, UniProt O75907).
T1 construct: Human full-length diacylglycerol:acylCoA acyltransferase 1 (DGAT-1) was expressed in Sf9 insect cells; made in house; host or cells: Sf9 insect cells (baculovirus)
T1 sequence (O75907 1-488): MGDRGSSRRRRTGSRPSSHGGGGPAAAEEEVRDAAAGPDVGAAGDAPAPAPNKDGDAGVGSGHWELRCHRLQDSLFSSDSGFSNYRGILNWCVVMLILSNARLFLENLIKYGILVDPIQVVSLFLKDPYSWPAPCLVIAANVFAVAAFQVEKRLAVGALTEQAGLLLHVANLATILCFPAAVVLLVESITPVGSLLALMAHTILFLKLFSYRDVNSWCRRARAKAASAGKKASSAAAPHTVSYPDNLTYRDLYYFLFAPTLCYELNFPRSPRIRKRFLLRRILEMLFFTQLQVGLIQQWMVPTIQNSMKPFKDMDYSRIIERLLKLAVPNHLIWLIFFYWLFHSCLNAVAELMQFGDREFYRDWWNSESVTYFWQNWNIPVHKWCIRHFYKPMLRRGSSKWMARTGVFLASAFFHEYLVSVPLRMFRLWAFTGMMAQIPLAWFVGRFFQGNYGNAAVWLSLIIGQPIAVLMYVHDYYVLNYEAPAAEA
Kind of assay: In vitro assay for DGAT-1 inhibition ([14C]decanoylCoA, Sf9 membrane fraction). It is filed as biochemical. Here is the method:
Human full-length diacylglycerol:acylCoA acyltransferase 1 (DGAT-1) was expressed in Sf9 insect cells which are then lysed and a crude membrane fraction (105,000×g pellet) was prepared.
The cells were cultured as follows. Sf9 cells (20 L) were infected with 4 mL of DGAT1 Baculovirus Infected Insect Cells (BIIC) for 72 hours in a Wave Bioreactor System 20/50P (Wave Biotec/GE Healthcare).
Crude DGAT-1 microsomes were prepared as follows. Cell pellets were washed once with ice-cold Dulbecco's phosphate-buffered saline. Cells were collected in tabletop centrifuge (Beckman GS-6KR), 15 minutes, 2000×g, 4° C. Twenty (20) mL of ice-cold Microsome Buffer (MB) was added per 5 g of cell pellet. The suspension was passed through a microfluidizer 3 times (18K psi). The lysate was transferred to centrifuge tubes and centrifuged for 20 minutes at 5000×g (Beckman-Coulter, Inc. Allegra® 64R High-Speed Refrigerated Benchtop Centrifuge, F0650 rotor) at 4° C. The supernatant was transferred to Ultracentrifuge tubes and centrifuged at […] for 1 hr in a Beckman Ti-45 rotor, 4° C. The supernatant fluid was discarded. The pellet was resuspended in 70 mL of MB by sonication. The microsome concentration was determined using Bio-Rad Protein DC Protein Assay. The microsomes were filter sterilized with a 0.22 μm filter. The samples were portioned, flash frozen and stored at −80° C.
Inhibitors in DMSO were pre-incubated with membranes before initiating the DGAT-1 reaction by the addition of decanoylCoA. […] The inhibitors were present at a range of eight concentrations to generate an apparent IC50 for each compound. […] Specifically, the eight concentrations used were 10 μM, 3 μM, 1 μM, 300 nM, 100 nM, 30 nM, 10 nM and 3 nM.
The reactions were allowed to proceed for 1.5 h at room temperature and then terminated by the addition of 10 μl of HCl (0.5 M). Reaction mixtures were neutralized by the addition of 15 μl of tris(hydroxy-methyl)aminomethane (1M, pH 8.0) and then mixed by trituration with 37.5 μl of Microscint™-E (Perkin Elmer).
Where this DGAT-1 inhibition assay was performed on a compound more than once, an inhibition range is also provided for that compound.

The mark [1] stands for this setting: apparent IC50, eight inhibitor concentrations 10 μM to 3 nM, read-out: IC50.
[2] abbreviates: inhibition range where the assay was performed on a compound more than once, read-out: IC50 range.
Setting [3] is: Examples 17-23 table, range of repeated assays, read-out: DGAT-1 IC50 Range.
[4] abbreviates: Examples 17-23 table, read-out: DGAT-1 IC50.

With `CS(=O)(=O)NC(=O)C[C@H]1CC[C@H](c2ccc(N3CCOc4ncnc(N)c4C3=O)cc2)CC1` [Example 26, 2-{Trans-4-[4-(4-amino-5-oxo-7,8-dihydropyrimido[5,4-f][1,4]oxazepin-6(5H)-yl)phenyl]cyclohexyl}-N-(methylsulfonyl)acetamide], the IC50 (usually the point on the concentration scale where inhibition reaches its midpoint) was 44.5 nM under setting [1] and 34.2 to 75 nM under setting [2].
For `Nc1ncnc2c1C(=O)N(c1ccc(C3CCC(CC(=O)O)CC3)cc1F)CCO2` (centres unmarked) [Example 6, 2-(4-(4-(4-amino-5-oxo-7,8-dihydropyrimido[5,4-f][1,4]oxazepin-6(5H)-yl)-3-fluorophenyl)cyclohexyl)acetic Acid], in that order: 55.5 nM and 29.1 to 89.6 nM.
Consider `Cc1cc(N2C[C@@H](C)Oc3ncnc(N)c3C2=O)ccc1C1CCC(CC(=O)O)CC1` (stereo partly drawn) [Example 21, (R)-2-(4-(4-(4-amino-8-methyl-5-oxo-7,8-dihydropyrimido[5,4-f][1,4]oxazepin-6(5H)-yl)-2-methylphenyl)cyclohexyl)acetic acid], for which the IC50 reads like this: under setting [3], 6.1 to 37.4 nM; under setting [4], 14.8 nM.
On to `Nc1ncnc2c1C(=O)N(c1ccc([C@H]3C[C@H]4C[C@@H]3C3C(C(=O)O)C34)cc1)CCO2` (mixture of isomers) [Example 57, (±)-(1R,5R,6S)-6-[4-(4-Amino-5-oxo-7,8-dihydropyrimido[5,4-f][1,4]oxazepin-6(5H)-yl)phenyl]tricyclo[3.2.1.0˜2.4˜]octane-3-carboxylic Acid], for which the IC50 runs as follows: under setting [1], 34.7 nM; under setting [2], 26.7 to 58.6 nM.
As to `Cc1cc(C2CCC(CC(=O)O)CC2)ccc1N1CCOc2ncnc(N)c2C1=O` (centres unmarked) [Example 23, 2-(4-(4-(4-amino-5-oxo-7,8-dihydropyrimido[5,4-f][1,4]-oxazepin-6(5H)-yl)-3-methylphenyl)cyclohexyl)acetic acid], the IC50 runs as follows: under setting [3], 643 to 2270 nM; under setting [4], 1410 nM.
As to `Nc1ncnc2c1C(=O)N(c1ccc(C3CCC(C(=O)O)CC3)cc1)CCO2` (centres unmarked) [Example 49, 4-[4-(4-Amino-5-oxo-7,8-dihydro-5H-9-oxa-1,3,6-triaza-benzocyclohepten-6-yl)-phenyl]-cyclohexanecarboxylic Acid], the IC50 by setting is: under setting [1], 7.8 nM; under setting [2], 5.8 to 10.5 nM.
Consider `C[C@@H]1CN(c2ccc([C@H]3CC[C@H](CC(N)=O)CC3)cc2)C(=O)c2c(N)ncnc2O1` [Example 27, (Trans-4-{4-[(8R)-4-amino-8-methyl-5-oxo-7,8-dihydropyrimido[5,4-f][1,4]oxazepin-6(5H)-yl]phenyl}cyclohexyl)acetamide], for which the IC50 was 52.2 nM under setting [1] and 11.4 to 68.1 nM under setting [2].

The values are drawn from patent US7718645B2, “Substituted bicyclolactam compounds” (Pfizer Inc., priority 2007, dated 2010).
